Results from patent US10669272B2, “Substituted naphthyridinone compounds useful as T cell activators” (BRISTOL-MYERS SQUIBB COMPANY, priority 2018, dated 2020).
Like-named read-outs stand apart in the source and are kept apart here.

What was measured:
human DGKζ = biological target: T1, human DGKζ (Homo sapiens, UniProt Q13574); assay: DGKζ LIPGLO assay (extruded liposome substrate), in vitro DGK inhibition; format: biochemical; details: read-out: DGKz LIPGLO IC50
T1 construct: TVMV protease cleavage site (C); Hexa-His (C); made in house; host or cells: Sf9 insect cells (baculovirus, Bac-to-Bac)

human DGKα = biological target: T2, human DGKα (Homo sapiens, UniProt P23743); assay: DGKα LIPGLO assay (extruded liposome substrate), in vitro DGK inhibition; format: biochemical; details: read-out: DGKa LIPGLO IC50
T2 construct: TVMV protease cleavage site (C); Hexa-His (C); made in house; host or cells: Sf9 insect cells (baculovirus, Bac-to-Bac)

Human venous whole blood = assay: Human whole blood IFN-γ assay; format: cell-based; details: human whole blood, read-out: INFg Whole Blood Normalized Agonist EC50;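 note: blood from healthy donors exposed to compound for 1 h before stimulation with anti-CD3 and anti-CD28 at 1 µg/mL each, IFN-γ quantified in supernatant by AlphaLISA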
Experimental: Human Whole Blood IFN-γ Assay
Human venous whole blood (22.5 μL per well), obtained from healthy donors, was pre-treated with compounds for one hour at 37° C. in a humidified 95% air/5% CO2 incubator. The blood was stimulated with 2.5 μL anti-human CD3 and anti-CD28 mAb at a final concentration of 1 μg/mL each for 24 hours at 37° C. IFN-γ in the supernatants was measured using AlphLISA kit (Cat # AL217).

[1] = normalized to 3 μM reference compound with anti-CD3 plus anti-CD28 as 100% activation
[2] = anti-CD3 plus anti-CD28, 24 hours, 3 μM reference compound = 100% activation
[3] = Homo sapiens, 24 h, normalized to 3 μM reference compound with anti-CD3 plus anti-CD28 as 100% activation
[4] = Homo sapiens, 24 h, anti-CD3 plus anti-CD28, 24 hours, 3 μM reference compound = 100% activation

T1 sequence (Q13574 with tags, fused parts or gaps isoform Q13574-4): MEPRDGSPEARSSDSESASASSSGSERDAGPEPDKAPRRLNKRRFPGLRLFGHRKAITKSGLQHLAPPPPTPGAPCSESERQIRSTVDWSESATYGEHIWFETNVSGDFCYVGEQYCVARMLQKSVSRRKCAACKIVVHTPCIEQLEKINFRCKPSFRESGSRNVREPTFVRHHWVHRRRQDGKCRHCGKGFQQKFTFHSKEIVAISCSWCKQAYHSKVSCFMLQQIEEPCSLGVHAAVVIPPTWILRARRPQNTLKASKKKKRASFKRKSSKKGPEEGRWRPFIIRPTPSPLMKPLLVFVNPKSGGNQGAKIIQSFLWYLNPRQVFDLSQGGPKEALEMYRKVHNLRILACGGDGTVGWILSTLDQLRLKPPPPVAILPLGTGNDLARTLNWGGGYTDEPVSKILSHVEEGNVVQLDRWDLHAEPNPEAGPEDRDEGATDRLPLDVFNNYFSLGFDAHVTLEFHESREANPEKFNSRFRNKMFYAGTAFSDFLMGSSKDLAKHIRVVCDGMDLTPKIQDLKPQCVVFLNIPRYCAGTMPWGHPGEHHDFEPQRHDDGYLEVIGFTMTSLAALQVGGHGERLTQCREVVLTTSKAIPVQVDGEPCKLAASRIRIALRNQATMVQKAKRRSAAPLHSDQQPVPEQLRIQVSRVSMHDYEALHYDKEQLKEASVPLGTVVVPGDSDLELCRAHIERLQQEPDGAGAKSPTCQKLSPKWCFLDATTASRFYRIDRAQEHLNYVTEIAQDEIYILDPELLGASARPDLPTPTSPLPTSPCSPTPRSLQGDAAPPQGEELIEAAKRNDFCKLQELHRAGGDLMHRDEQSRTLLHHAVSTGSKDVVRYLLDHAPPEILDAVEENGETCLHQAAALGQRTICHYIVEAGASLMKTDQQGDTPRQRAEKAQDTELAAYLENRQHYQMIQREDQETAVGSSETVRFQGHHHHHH
T2 sequence (P23743 with tags, fused parts or gaps): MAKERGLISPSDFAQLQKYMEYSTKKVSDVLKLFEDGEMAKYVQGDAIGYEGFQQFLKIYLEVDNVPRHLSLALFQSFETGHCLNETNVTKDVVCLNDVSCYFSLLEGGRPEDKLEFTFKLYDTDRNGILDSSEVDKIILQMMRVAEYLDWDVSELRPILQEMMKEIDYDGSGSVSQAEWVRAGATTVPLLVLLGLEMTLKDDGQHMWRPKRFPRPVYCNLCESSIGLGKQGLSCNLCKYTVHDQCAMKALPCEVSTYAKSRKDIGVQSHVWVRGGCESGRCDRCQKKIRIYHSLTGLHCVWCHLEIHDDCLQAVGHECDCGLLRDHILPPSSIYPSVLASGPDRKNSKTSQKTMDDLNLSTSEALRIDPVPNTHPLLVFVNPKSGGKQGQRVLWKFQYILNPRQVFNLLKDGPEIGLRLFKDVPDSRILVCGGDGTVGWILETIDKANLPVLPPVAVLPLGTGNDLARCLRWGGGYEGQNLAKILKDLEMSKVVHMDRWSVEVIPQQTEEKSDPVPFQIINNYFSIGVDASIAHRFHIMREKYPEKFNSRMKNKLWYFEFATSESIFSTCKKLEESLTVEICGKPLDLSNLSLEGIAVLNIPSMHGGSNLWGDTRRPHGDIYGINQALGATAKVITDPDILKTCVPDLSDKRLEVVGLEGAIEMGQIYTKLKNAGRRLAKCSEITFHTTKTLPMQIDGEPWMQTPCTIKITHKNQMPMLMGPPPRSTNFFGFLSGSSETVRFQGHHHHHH

Row | Compound | IC50 (human DGKζ; liposome (LIPGLO) assay) | IC50 (human DGKα; liposome (LIPGLO) assay) | EC50 (Human venous whole blood; [1]) | IC50 (human DGKζ; DGKζ liposome (LIPGLO) assay) | IC50 (human DGKα; DGKα liposome (LIPGLO) assay) | EC50 (Human venous whole blood; [2]) | EC50 (Human venous whole blood; [3]) | EC50 (Human venous whole blood; [4])
1 | CC[C@@H]1CN(c2cc(=O)n(C)c3ccc(C#N)nc23)[C@@H](C)CN1C(c1ccc(F)cc1)c1ccnc(C)n1 (stereo partly drawn) [Example 419, 8-((2S,5R)-5-ethyl-4-((4-fluorophenyl)(2-methylpyrimidin-4-yl)methyl)-2-methylpiperazin-1-yl)-5-methyl-6-oxo-5,6-dihydro-1,5-naphthyridine-2-carbonitrile] | 340 nM | 950 nM | 960 nM | – | – | – | – | –
2 | C[C@@H]1CN(c2c(C#N)c(=O)n(C)c3ccc(C#N)nc23)[C@@H](C)CN1C(c1ccc(F)cc1)c1ncccc1F (single isomer, unassigned) [Example 821] | – | – | – | 6500 nM | 2700 nM | 3400 nM | – | –
3 | C[C@@H]1CN(c2c(C#N)c(=O)n(C)c3ccc(C#N)nc23)CCN1C(c1ccccc1)c1ccc(F)cc1 (single isomer, unassigned) [Example 879] | – | – | – | 1100 nM | 600 nM | 1200 nM | – | –
4 | CCC(c1ccc(OC(F)(F)F)cc1F)N1C[C@H](C)N(c2cc(=O)n(C)c3ccc(C#N)nc23)C[C@H]1C (single isomer, unassigned) [Example 440] | 320 nM | 81 nM | 1000 nM | – | – | – | – | –
5 | Cc1ccc(C(C)N2C[C@H](C)N(c3c(C#N)c(=O)n(C)c4ccc(C#N)nc34)C[C@H]2C)cc1 (single isomer, unassigned) [Example 785] | – | – | – | > 250000 nM | 690 nM | 6400 nM | – | –
6 | CC[C@@H]1CN(c2cc(=O)n(C)c3ccc(C#N)nc23)[C@@H](C)CN1C(C)c1ccc(OC(F)F)cc1 (stereo partly drawn) [Example 1343] | 16 nM | 4.4 nM | – | – | – | – | 51 nM | –
7 | COc1ccc(C(C)N2C[C@H](C)N(c3cc(=O)n(C)c4ccc(C#N)nc34)C[C@H]2C)nc1 (single isomer, unassigned) [Example 645] | 18000 nM | 1900 nM | 17000 nM | – | – | – | – | –
8 | COCc1cc(C(C)N2C[C@H](C)N(c3cc(=O)n(C)c4ccc(C#N)nc34)C[C@H]2C)ccc1F (single isomer, unassigned) [Example 1316] | 18 nM | 1800 nM | – | – | – | – | 4500 nM | –
9 | C[C@@H]1CN(c2cc(=O)n(C)c3ccc(C#N)nc23)[C@@H](C)CN1C(c1ccc(Cl)cc1)c1ccccn1 (single isomer, unassigned) [Example 382] | 2500 nM | 220 nM | 2600 nM | – | – | – | – | –
10 | C[C@@H]1CN(c2cc(=O)n(C)c3ccc(C#N)nc23)[C@@H](C)CN1C(c1ccc(F)cc1)C1CCOCC1 (single isomer, unassigned) [Example 387] | 3100 nM | 1500 nM | – | – | – | – | 3600 nM | –
11 | C[C@@H]1CN(c2cc(=O)n(C)c3ccc(C#N)nc23)[C@@H](C)CN1C(c1ccc(F)cc1)c1nc(N2CCOCC2)no1 (stereo partly drawn) [Example 750] | – | – | – | 240 nM | 480 nM | 150 nM | – | –
12 | C[C@@H]1CN(c2cc(=O)n(C)c3ccc(C#N)nc23)[C@@H](C)CN1C(c1ccc(F)cc1)c1nc(C2CN(C(=O)OC(C)(C)C)C2)no1 (single isomer, unassigned) [Example 756] | – | – | – | 1900 nM | 190 nM | 6000 nM | – | –
13 | CC(c1ccc(OC(F)(F)F)cc1)N1C[C@H](C)N(c2cc(=O)n(C)c3ccc(C#N)nc23)C[C@H]1C (single isomer, unassigned) [Example 435] | 4900 nM | 1100 nM | 2500 nM | – | – | – | – | –
14 | CC(c1ccc(OC(F)(F)F)cc1)N1CCN(c2c(C#N)c(=O)n(C)c3ccc(C#N)nc23)C[C@H]1C (single isomer, unassigned) [Example 958] | – | – | – | 28000 nM | 490 nM | – | – | 20000 nM
15 | C[C@@H]1CN(c2c(C#N)c(=O)n(C)c3ccc(C#N)nc23)[C@@H](C)CN1C(c1ccc(F)cc1)c1cccc(C(F)(F)F)n1 (single isomer, unassigned) [Example 844] | – | – | – | 5200 nM | 100000 nM | – | – | 2700 nM
16 | CC[C@@H]1CN(c2cc(=O)n(C)c3ccc(C#N)nc23)[C@@H](C)CN1C(C)c1ccc(OC)cc1 (single isomer, unassigned) [Example 1351] | 780 nM | 1100 nM | 740 nM | – | – | – | – | –
17 | COCC(c1ccc(F)cc1)N1C[C@H](C)N(c2cc(=O)n(C)c3ccc(C#N)nc23)C[C@H]1C (single isomer, unassigned) [Example 559] | 2700 nM | 65 nM | – | – | – | – | 270 nM | –
18 | CC[C@@H]1CN(c2cc(=O)n(C)c3ccc(C#N)nc23)[C@@H](C)CN1C(C)c1ccc(C2CC2)cc1F (single isomer, unassigned) [Example 1341] | 1400 nM | 4400 nM | 2000 nM | – | – | – | – | –
19 | CC[C@@H]1CN(c2cc(=O)n(C)c3ccc(C#N)nc23)[C@@H](C)CN1Cc1ccc(F)cc1 [Example 1079] | 89 nM | 28 nM | – | – | – | – | 650 nM | –

Row | Compound | IC50 (human DGKζ; liposome (LIPGLO) assay) | IC50 (human DGKα; liposome (LIPGLO) assay) | EC50 (Human venous whole blood; [1]) | IC50 (human DGKζ; DGKζ liposome (LIPGLO) assay) | IC50 (human DGKα; DGKα liposome (LIPGLO) assay) | EC50 (Human venous whole blood; [2]) | EC50 (Human venous whole blood; [3]) | EC50 (Human venous whole blood; [4])
20 | C[C@@H]1CN(c2cc(=O)n(C)c3ccc(C#N)nc23)[C@@H](C)CN1C(c1ccc(F)cc1)c1cccnn1 (single isomer, unassigned) [Example 383] | 13000 nM | 5600 nM | – | – | – | – | 3200 nM | –
21 | C[C@@H]1CN(c2cc(=O)n(C)c3ccc(C#N)nc23)[C@@H](C)CN1C(c1ccc(F)cc1)c1ncccn1 (stereo partly drawn) [Example 677] | 2700 nM | 150 nM | 1800 nM | – | – | – | – | –
22 | C[C@@H]1CN(c2c(C#N)c(=O)n(C)c3ccc(C#N)nc23)[C@@H](C)CN1C(c1ccc(F)cc1)c1ccccn1 (single isomer, unassigned) [Example 842] | – | – | – | 3300 nM | 1200 nM | 20000 nM | – | –
23 | C[C@@H]1CN(c2cc(=O)n(C)c3ccc(C#N)nc23)[C@@H](C)CN1C(c1ccc(F)cc1)c1cccc(N2CCOCC2)c1 (single isomer, unassigned) [Example 673] | 2300 nM | 4700 nM | 1300 nM | – | – | – | – | –
24 | COCC(c1ccc(C(F)(F)F)cn1)N1C[C@H](C)N(c2cc(=O)n(C)c3ccc(C#N)nc23)C[C@H]1C (single isomer, unassigned) [Example 1277] | 610 nM | 69 nM | – | – | – | – | 1400 nM | –
25 | CC[C@H]1CN(C(C)c2ccc(F)c(F)c2)[C@H](C)CN1c1cc(=O)n(C)c2ccc(C#N)nc12 (single isomer, unassigned) [Example 1139] | 100 nM | 64 nM | 1100 nM | – | – | – | – | –
26 | C[C@@H]1CN(c2c(C#N)c(=O)n(C)c3ccc(C#N)nc23)CCN1C(c1ccc(Cl)cc1)c1ccc2c(c1)OC(F)(F)O2 (single isomer, unassigned) [Example 941] | – | – | – | 20000 nM | 4300 nM | – | – | 20000 nM
27 | C[C@H]1CN(Cc2ccc3c(c2)OC(F)(F)O3)[C@H](CO)CN1c1cc(=O)n(C)c2ccc(C#N)nc12 [Example 1390] | 15000 nM | 4000 nM | – | – | – | – | 14000 nM | –
28 | CC(c1ccc(C#N)cc1)N1CCN(c2c(C#N)c(=O)n(C)c3ccc(C#N)nc23)C[C@H]1C (stereo partly drawn) [Example 954] | – | – | – | 6500 nM | 130 nM | – | – | 20000 nM
29 | CC[C@@H]1CN(c2cc(=O)n(C)c3ccc(C#N)nc23)[C@@H](C)CN1C(c1ccc(F)cc1)c1ccon1 (single isomer, unassigned) [Example 1115] | 1400 nM | 84 nM | 800 nM | – | – | – | – | –
30 | CC[C@@H]1CN(c2cc(=O)n(C)c3ccc(C#N)nc23)[C@@H](C)CN1C(C)c1ccc(F)cc1 (single isomer, unassigned) [Example 1084] | 5000 nM | 1700 nM | 2600 nM | – | – | – | – | –
31 | C[C@@H]1CN(c2cc(=O)n(C)c3ccc(C#N)nc23)[C@@H](C)CN1C(c1ccc(F)cn1)c1ccc(F)cc1F (single isomer, unassigned) [Example 684] | 490 nM | 6.9 nM | 350 nM | – | – | – | – | –
32 | C[C@@H]1CN(c2cc(=O)n(C)c3ccc(C#N)nc23)[C@@H](C)CN1C(c1ccc(F)cc1)c1ncccn1 (stereo partly drawn) [Example 676] | 5400 nM | 62 nM | – | – | – | – | 1800 nM | –
33 | CC(C)c1ccc(C(C)N2C[C@H](C)N(c3cc(=O)n(C)c4ccc(C#N)nc34)C[C@H]2C)cc1 (single isomer, unassigned) [Example 1234] | 1400 nM | 2200 nM | 5400 nM | – | – | – | – | –
34 | Cc1ccc(F)cc1CN1CCN(c2c(C#N)c(=O)n(C)c3ccc(C#N)nc23)C[C@H]1C [Example 1001] | – | – | – | 4600 nM | 1500 nM | – | – | 4700 nM
35 | Cc1cccc(C(c2ccc(F)cc2)N2C[C@H](C)N(c3c(C#N)c(=O)n(C)c4ccc(C#N)nc34)C[C@H]2C)n1 (stereo partly drawn) [Example 816] | – | – | – | 3100 nM | 2600 nM | 1100 nM | – | –
36 | C[C@@H]1CN(c2c(C#N)c(=O)n(C)c3ccc(C#N)nc23)[C@@H](C)CN1C(c1ccc(F)cc1)c1csc(C2CC2)n1 (single isomer, unassigned) [Example 859] | – | – | – | 360 nM | 3000 nM | 3700 nM | – | –
37 | C[C@@H]1CN(c2cc(=O)n(C)c3ccc(C#N)nc23)[C@@H](C)CN1C(c1ccc(F)cc1)c1cccc(C(F)(F)F)n1 (stereo partly drawn) [Example 679] | 720 nM | 5400 nM | 1300 nM | – | – | – | – | –
38 | CC[C@H]1CN(C(c2ccc(F)cc2)c2cc(C3CC3)on2)[C@H](CC)CN1c1cc(=O)n(C)c2ccc(C#N)nc12 (single isomer, unassigned) [Example 1074] | 47 nM | 44 nM | – | – | – | – | 42 nM | –
